Assay results published in patent US20020111486A1, “Transition metal-cyclopentadienyl-tropane conjugates” (priority 1999, published 2002).

Tests used:
Details in all cases: mean±SEM; rat striatal and cortical tissues
[1] = target: T1, serotonin transporter (5-HTT) (Rattus norvegicus, UniProt P31652); experiment: Serotonin transporter binding affinity in rat tissue
T1 construct: from tissue
Procedure: (§1) The binding affinities (mean±SEM) of compounds 1a, 1b, 1c, 1d, and 1e for the dopamine transporter (DAT), the serotonin transporter (5-HTT), and norepinephrine (NET) were evaluated in, respectively, rat striatal and cortical tissues according to methods described in Tamagnan et al., Advances in Neurology, Parkinson's Disease. 80: 91-103 (1999). The results are summarized in Table 1 below. β-CIT was run concurrently as a control.

[2] = target: T2, dopamine transporter (DAT) (Rattus norvegicus, UniProt P23977); experiment: Dopamine transporter binding affinity in rat striatal tissue
T2 construct: from tissue; host or cells: rat striatal tissue
T2 sequence (P23977 whole entry): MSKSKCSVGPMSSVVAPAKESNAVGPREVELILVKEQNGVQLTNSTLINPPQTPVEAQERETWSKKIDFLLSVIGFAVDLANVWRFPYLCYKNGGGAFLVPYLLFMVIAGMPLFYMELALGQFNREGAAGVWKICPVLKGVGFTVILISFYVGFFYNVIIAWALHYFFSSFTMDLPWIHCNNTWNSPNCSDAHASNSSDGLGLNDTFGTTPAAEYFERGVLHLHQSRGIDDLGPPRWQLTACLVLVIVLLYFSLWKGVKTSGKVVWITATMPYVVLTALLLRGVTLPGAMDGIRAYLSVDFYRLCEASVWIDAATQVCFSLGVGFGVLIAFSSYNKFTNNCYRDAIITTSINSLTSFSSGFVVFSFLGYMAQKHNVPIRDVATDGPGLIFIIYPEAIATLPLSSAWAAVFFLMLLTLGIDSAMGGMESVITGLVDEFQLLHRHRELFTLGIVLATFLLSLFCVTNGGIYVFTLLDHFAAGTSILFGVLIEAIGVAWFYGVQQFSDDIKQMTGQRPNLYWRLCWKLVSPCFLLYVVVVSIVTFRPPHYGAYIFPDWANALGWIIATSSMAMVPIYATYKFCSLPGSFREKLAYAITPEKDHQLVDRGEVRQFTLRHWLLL
Procedure: as §1

norepinephrine (NET) = target: T3, norepinephrine (NET) (Rattus norvegicus, UniProt Q63380); experiment: Norepinephrine transporter binding affinity in rat tissue
T3 construct: from tissue
T3 sequence (Q63380 1-617): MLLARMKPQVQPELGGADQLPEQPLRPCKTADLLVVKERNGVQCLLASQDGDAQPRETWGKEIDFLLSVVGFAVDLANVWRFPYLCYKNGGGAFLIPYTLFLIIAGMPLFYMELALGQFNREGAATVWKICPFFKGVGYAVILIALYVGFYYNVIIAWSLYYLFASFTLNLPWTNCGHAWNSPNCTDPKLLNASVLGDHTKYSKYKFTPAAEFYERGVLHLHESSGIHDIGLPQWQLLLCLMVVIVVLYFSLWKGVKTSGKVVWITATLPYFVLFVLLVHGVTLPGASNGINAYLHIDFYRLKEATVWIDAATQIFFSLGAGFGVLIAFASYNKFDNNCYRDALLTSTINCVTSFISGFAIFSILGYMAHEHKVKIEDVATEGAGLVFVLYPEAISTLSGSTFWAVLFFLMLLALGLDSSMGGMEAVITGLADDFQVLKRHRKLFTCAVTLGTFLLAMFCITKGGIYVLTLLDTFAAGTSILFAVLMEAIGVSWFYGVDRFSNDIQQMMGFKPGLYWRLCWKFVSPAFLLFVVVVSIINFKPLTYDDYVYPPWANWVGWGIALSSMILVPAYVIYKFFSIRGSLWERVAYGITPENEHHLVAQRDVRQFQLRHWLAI
Procedure: as §1

T1 sequence (P31652 whole entry): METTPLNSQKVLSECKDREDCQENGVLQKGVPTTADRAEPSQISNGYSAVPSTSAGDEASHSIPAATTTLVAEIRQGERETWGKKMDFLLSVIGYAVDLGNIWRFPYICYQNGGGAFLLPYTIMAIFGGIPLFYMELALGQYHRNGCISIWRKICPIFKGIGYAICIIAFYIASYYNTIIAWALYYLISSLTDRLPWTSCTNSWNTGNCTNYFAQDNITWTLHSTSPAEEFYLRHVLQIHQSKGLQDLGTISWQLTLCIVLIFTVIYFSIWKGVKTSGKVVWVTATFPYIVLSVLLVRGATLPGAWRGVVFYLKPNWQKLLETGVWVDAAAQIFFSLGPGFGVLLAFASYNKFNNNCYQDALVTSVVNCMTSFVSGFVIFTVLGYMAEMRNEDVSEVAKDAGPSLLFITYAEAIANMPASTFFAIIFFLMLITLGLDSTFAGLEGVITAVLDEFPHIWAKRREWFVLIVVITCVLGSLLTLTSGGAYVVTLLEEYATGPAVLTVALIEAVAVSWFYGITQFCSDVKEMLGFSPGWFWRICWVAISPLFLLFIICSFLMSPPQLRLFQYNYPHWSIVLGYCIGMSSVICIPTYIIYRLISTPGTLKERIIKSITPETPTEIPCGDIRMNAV

Compound: N-(4-oxo-4-tricarbonylcyclopentadienylrhenio)-2β-hydroxymethyl-3β-(4-chlorophenyl)-nortropane [Compound 1a]
- Ki [1]: 13.3 ± 1 nM
- Ki [2]: 13 ± 1.8 nM
- Ki (norepinephrine (NET)): 74 ± 8.2 nM

Compound: 3-(4-Chlorophenyl)-8-(3-tricarbonylrhenatocyclopentadienyloxy-carbonylpropyl)-8-aza-bicyclo[3.2.1 ]octane-2-carboxylic acid methyl ester [Compound 1b]
- Ki [1]: 5.28 ± 0.21 nM
- Ki [2]: 4.18 ± 0.33 nM
- Ki (norepinephrine (NET)): 74 ± 8.2 nM

Compound: 8-Methyl-3β-[4 carbonyl -(cyclopentadienyltricarbonyl rhenium)-phenyl]-8-azabicyclo[3.2.1 ]octane-2β-carboxylic acid methyl ester [Compound 1c]
- Ki [1]: > 10000 nM
- Ki [2]: > 10000 nM
- Ki (norepinephrine (NET)): > 30000 nM

Compound: COC(=O)C1C(c2ccc(I)cc2)CC2CCC1N2C (stereo not drawn) [β-CIT, β-Carbomethoxy-3β-(4-iodophenyl) tropane, reference compound]
- Ki [1]: 0.46 ± 0.06 nM
- Ki [2]: 0.96 ± 0.15 nM
- Ki (norepinephrine (NET)): 2.8 ± 0.4 nM

Compound: 3β-(4-Chlorophenyl)-8-(4-cyclopentadienyltricarbonyl rhenium-butyl)-8-azabicyclo[3.2.1 ]octane-2β-carboxylic acid methyl ester [Compound 1d]
- Ki [1]: 1.14 ± 0.16 nM
- Ki [2]: 5.45 ± 0.64 nM
- Ki (norepinephrine (NET)): 199 ± 30 nM
